{"source": "patent US6632799B2", "about": "“Injectable ready-to-use solutions containing an antitumor anthracycline glycoside” (Pharmacia & Upjohn Company, priority 1985, dated 2003)", "key": {"[1]": {"test": "Shelf-life (t 90%) forecast of doxorubicin.HCl 2 mg/ml 0.9% sodium chloride solution adjusted to pH 3.0", "format": "physicochemical", "conditions": "for Kobs × 10^3: observed", "description": "The Arrhenius equation for the degradation process was calculated from the Kobs obtained from the different temperatures taken in account for the testing (table 13)."}, "[2]": {"test": "Shelf-life (t 90%) forecast of doxorubicin.HCl 2 mg/ml solution in 5% dextrose adjusted to pH 3.0", "format": "physicochemical", "conditions": "for Kobs × 10^3: observed", "experimental": "Applying the equation, the rate constants for the pseudo-first order reactions at 4° C., 8° C., and 15° C. and 27° C. were calculated, together with the expected t90% at these temperatures."}, "[3]": {"conditions": "0.9% NaCl pH 3.0, 27° C., Arrhenius"}, "[4]": {"conditions": "0.9% sodium chloride pH 3.0, 35° C., 0 days"}, "[5]": {"conditions": "0.9% sodium chloride pH 3.0, 35° C., 8 days"}, "[6]": {"conditions": "0.9% sodium chloride pH 3.0, 35° C., 14 days"}, "[7]": {"conditions": "0.9% sodium chloride pH 3.0, 35° C., 21 days"}, "[8]": {"conditions": "0.9% sodium chloride pH 3.0, 35° C., 28 days"}, "[9]": {"conditions": "0.9% sodium chloride pH 3.0, 45° C., 0 days"}, "[10]": {"conditions": "0.9% sodium chloride pH 3.0, 45° C., 4 days"}, "[11]": {"conditions": "0.9% sodium chloride pH 3.0, 45° C., 8 days"}, "[12]": {"conditions": "0.9% sodium chloride pH 3.0, 45° C., 21 days"}, "[13]": {"conditions": "0.9% sodium chloride pH 3.0, 55° C., 0 days"}, "[14]": {"conditions": "0.9% sodium chloride pH 3.0, 55° C., 11 days"}, "[15]": {"conditions": "0.9% sodium chloride pH 3.0, 60° C., 0 days"}, "[16]": {"conditions": "0.9% sodium chloride pH 3.0, 60° C., 1 day"}, "[17]": {"conditions": "0.9% sodium chloride pH 3.0, 60° C., 3 days"}, "[18]": {"conditions": "5% dextrose pH 3.0, 35° C., 4 days"}, "[19]": {"conditions": "5% dextrose pH 3.0, 35° C., 8 days"}, "[20]": {"conditions": "5% dextrose pH 3.0, 35° C., 14 days"}, "[21]": {"conditions": "5% dextrose pH 3.0, 35° C., 17 days"}, "[22]": {"conditions": "5% dextrose pH 3.0, 35° C., 21 days"}, "[23]": {"conditions": "5% dextrose pH 3.0, 45° C., 4 days"}, "[24]": {"conditions": "5% dextrose pH 3.0, 45° C., 8 days"}, "[25]": {"conditions": "5% dextrose pH 3.0, 45° C., 14 days"}, "[26]": {"conditions": "5% dextrose pH 3.0, 45° C., 21 days"}, "[27]": {"conditions": "5% dextrose pH 3.0, 55° C., 17 days"}, "[28]": {"conditions": "5% dextrose pH 3.0, 55° C., 21 days"}, "[29]": {"conditions": "5% dextrose pH 3.0, 60° C., 2 days"}, "[30]": {"conditions": "5% dextrose pH 3.0, 60° C., 4 days"}, "[31]": {"conditions": "5% dextrose pH 3.0, 60° C., 6 days"}, "[32]": {"conditions": "5% dextrose pH 3.0, 60° C., 8 days"}}, "note": "Structures can show the parent of a compound that is named as a salt."}
{"compound": "COc1cccc2c1C(=O)c1c(O)c3c(c(O)c1C2=O)C[C@@](O)(C(=O)CO)C[C@@H]3O[C@H]1C[C@H](N)[C@H](O)[C@H](C)O1", "note": "[Doxorubicin.HCl, doxorubicin hydrochloride]", "values": [{"measurement": "commercially meaningful shelf-life (t90% forecasts)", "setting": "[1]; 2 mg/ml pH 3.0 in 0.9% sodium chloride", "value": "only if the product is stored in a refrigerator"}, {"measurement": "K × 10^3 calculated", "setting": "[1]; 0.9% NaCl pH 3.0, 4° C., Arrhenius", "value": "0.017 1/days"}, {"measurement": "K × 10^3 calculated", "setting": "[1]; 0.9% NaCl pH 3.0, 8° C., Arrhenius", "value": "0.037 1/days"}, {"measurement": "K × 10^3 calculated", "setting": "[1]; 0.9% NaCl pH 3.0, 15° C., Arrhenius", "value": "0.137 1/days"}, {"measurement": "K × 10^3 calculated", "setting": "[1]; [3]", "value": "1.112 1/days"}, {"measurement": "t90%", "setting": "[1]; [3]", "value": 94, "unit": "days"}, {"measurement": "Kobs × 10^3", "setting": "[1]; 0.9% NaCl pH 3.0, 35° C.", "value": "3.89 1/days"}, {"measurement": "Kobs × 10^3", "setting": "[1]; 0.9% NaCl pH 3.0, 45° C.", "value": "21.61 1/days"}, {"measurement": "Kobs × 10^3", "setting": "[1]; 0.9% NaCl pH 3.0, 55° C.", "value": "75.90 1/days"}, {"measurement": "Kobs × 10^3", "setting": "[1]; 0.9% NaCl pH 3.0, 60° C.", "value": "164.90 1/days"}, {"measurement": "Doxorubicin.HCl assay", "setting": "[1]; [4]", "value": 2.061, "unit": "mg/mL"}, {"measurement": "pH", "setting": "[1]; [4]", "value": 3.05}, {"measurement": "Doxorubicin.HCl assay", "setting": "[1]; [5]", "value": 2.045, "unit": "mg/mL"}, {"measurement": "pH", "setting": "[1]; [5]", "value": 2.98}, {"measurement": "Doxorubicin.HCl assay", "setting": "[1]; [6]", "value": 1.946, "unit": "mg/mL"}, {"measurement": "pH", "setting": "[1]; [6]", "value": 2.92}, {"measurement": "Doxorubicin.HCl assay", "setting": "[1]; [7]", "value": 1.932, "unit": "mg/mL"}, {"measurement": "pH", "setting": "[1]; [7]", "value": 2.92}, {"measurement": "Doxorubicin.HCl assay", "setting": "[1]; [8]", "value": 1.852, "unit": "mg/mL"}, {"measurement": "pH", "setting": "[1]; [8]", "value": 2.98}, {"measurement": "Doxorubicin.HCl assay", "setting": "[1]; [9]", "value": 2.061, "unit": "mg/mL"}, {"measurement": "pH", "setting": "[1]; [9]", "value": 3.05}, {"measurement": "Doxorubicin.HCl assay", "setting": "[1]; [10]", "value": 1.996, "unit": "mg/mL"}, {"measurement": "pH", "setting": "[1]; [10]", "value": 2.98}, {"measurement": "Doxorubicin.HCl assay", "setting": "[1]; [11]", "value": 1.724, "unit": "mg/mL"}, {"measurement": "pH", "setting": "[1]; [11]", "value": 2.97}, {"measurement": "pH", "setting": "[1]; 0.9% sodium chloride pH 3.0, 45° C., 14 days", "value": 2.98}, {"measurement": "Doxorubicin.HCl assay", "setting": "[1]; [12]", "value": 1.344, "unit": "mg/mL"}, {"measurement": "pH", "setting": "[1]; [12]", "value": 2.93}, {"measurement": "Doxorubicin.HCl assay", "setting": "[1]; [13]", "value": 2.061, "unit": "mg/mL"}, {"measurement": "pH", "setting": "[1]; [13]", "value": 3.05}, {"measurement": "pH", "setting": "[1]; 0.9% sodium chloride pH 3.0, 55° C., 4 days", "value": 2.90}, {"measurement": "pH", "setting": "[1]; 0.9% sodium chloride pH 3.0, 55° C., 8 days", "value": 2.97}, {"measurement": "Doxorubicin.HCl assay", "setting": "[1]; [14]", "value": 0.900, "unit": "mg/mL"}, {"measurement": "pH", "setting": "[1]; [14]", "value": 2.95}, {"measurement": "Doxorubicin.HCl assay", "setting": "[1]; [15]", "value": 2.061, "unit": "mg/mL"}, {"measurement": "pH", "setting": "[1]; [15]", "value": 3.05}, {"measurement": "Doxorubicin.HCl assay", "setting": "[1]; [16]", "value": 1.742, "unit": "mg/mL"}, {"measurement": "pH", "setting": "[1]; [16]", "value": 2.97}, {"measurement": "pH", "setting": "[1]; 0.9% sodium chloride pH 3.0, 60° C., 2 days", "value": 2.96}, {"measurement": "Doxorubicin.HCl assay", "setting": "[1]; [17]", "value": 1.290, "unit": "mg/mL"}, {"measurement": "pH", "setting": "[1]; [17]", "value": 2.98}, {"measurement": "pH", "setting": "[1]; 0.9% sodium chloride pH 3.0, 60° C., 4 days", "value": 2.96}, {"measurement": "commercially meaningful shelf-life (t90% forecasts)", "setting": "[2]; 2 mg/ml pH 3.0 5% dextrose solution", "value": "only if the product is stored in a refrigerator"}, {"measurement": "t90%", "setting": "[2]; 5% dextrose pH 3.0, 27° C., Arrhenius", "value": 82, "unit": "days"}, {"measurement": "Doxorubicin.HCl assay", "setting": "[2]; 5% dextrose pH 3.0, 35° C., 0 days", "value": 2.114, "unit": "mg/mL"}, {"measurement": "Doxorubicin.HCl assay", "setting": "[2]; [18]", "value": 2.044, "unit": "mg/mL"}, {"measurement": "pH", "setting": "[2]; [18]", "value": 2.98}, {"measurement": "Doxorubicin.HCl assay", "setting": "[2]; [19]", "value": 2.034, "unit": "mg/mL"}, {"measurement": "pH", "setting": "[2]; [19]", "value": 2.94}, {"measurement": "Doxorubicin.HCl assay", "setting": "[2]; [20]", "value": 2.015, "unit": "mg/mL"}, {"measurement": "pH", "setting": "[2]; [20]", "value": 2.95}, {"measurement": "Doxorubicin.HCl assay", "setting": "[2]; [21]", "value": 1.934, "unit": "mg/mL"}, {"measurement": "pH", "setting": "[2]; [21]", "value": 2.90}, {"measurement": "Doxorubicin.HCl assay", "setting": "[2]; [22]", "value": 1.859, "unit": "mg/mL"}, {"measurement": "pH", "setting": "[2]; [22]", "value": 2.94}, {"measurement": "Kobs × 10^3", "setting": "[2]; 5% dextrose pH 3.0, 35° C.", "value": "4.190 1/days"}, {"measurement": "Doxorubicin.HCl assay", "setting": "[2]; 5% dextrose pH 3.0, 45° C., 0 days", "value": 2.114, "unit": "mg/mL"}, {"measurement": "Doxorubicin.HCl assay", "setting": "[2]; [23]", "value": 1.940, "unit": "mg/mL"}, {"measurement": "pH", "setting": "[2]; [23]", "value": 2.97}, {"measurement": "Doxorubicin.HCl assay", "setting": "[2]; [24]", "value": 1.870, "unit": "mg/mL"}, {"measurement": "pH", "setting": "[2]; [24]", "value": 2.98}, {"measurement": "Doxorubicin.HCl assay", "setting": "[2]; [25]", "value": 1.684, "unit": "mg/mL"}, {"measurement": "pH", "setting": "[2]; [25]", "value": 2.95}, {"measurement": "pH", "setting": "[2]; 5% dextrose pH 3.0, 45° C., 17 days", "value": 2.96}, {"measurement": "Doxorubicin.HCl assay", "setting": "[2]; [26]", "value": 1.410, "unit": "mg/mL"}, {"measurement": "pH", "setting": "[2]; [26]", "value": 2.96}, {"measurement": "Kobs × 10^3", "setting": "[2]; 5% dextrose pH 3.0, 45° C.", "value": "14.55 1/days"}, {"measurement": "Doxorubicin.HCl assay", "setting": "[2]; 5% dextrose pH 3.0, 55° C., 0 days", "value": 2.114, "unit": "mg/mL"}, {"measurement": "pH", "setting": "[2]; 5% dextrose pH 3.0, 55° C., 4 days", "value": 2.95}, {"measurement": "pH", "setting": "[2]; 5% dextrose pH 3.0, 55° C., 8 days", "value": 2.92}, {"measurement": "pH", "setting": "[2]; 5% dextrose pH 3.0, 55° C., 14 days", "value": 2.99}, {"measurement": "Doxorubicin.HCl assay", "setting": "[2]; [27]", "value": 0.957, "unit": "mg/mL"}, {"measurement": "pH", "setting": "[2]; [27]", "value": 2.91}, {"measurement": "Doxorubicin.HCl assay", "setting": "[2]; [28]", "value": 0.796, "unit": "mg/mL"}, {"measurement": "pH", "setting": "[2]; [28]", "value": 2.95}, {"measurement": "Kobs × 10^3", "setting": "[2]; 5% dextrose pH 3.0, 55° C.", "value": "58.11 1/days"}, {"measurement": "Doxorubicin.HCl assay", "setting": "[2]; 5% dextrose pH 3.0, 60° C., 0 days", "value": 2.114, "unit": "mg/mL"}, {"measurement": "Doxorubicin.HCl assay", "setting": "[2]; [29]", "value": 1.752, "unit": "mg/mL"}, {"measurement": "pH", "setting": "[2]; [29]", "value": 2.96}, {"measurement": "Doxorubicin.HCl assay", "setting": "[2]; [30]", "value": 1.393, "unit": "mg/mL"}, {"measurement": "pH", "setting": "[2]; [30]", "value": 2.98}, {"measurement": "Doxorubicin.HCl assay", "setting": "[2]; [31]", "value": 1.176, "unit": "mg/mL"}, {"measurement": "pH", "setting": "[2]; [31]", "value": 2.96}, {"measurement": "Doxorubicin.HCl assay", "setting": "[2]; [32]", "value": 0.925, "unit": "mg/mL"}, {"measurement": "pH", "setting": "[2]; [32]", "value": 2.97}, {"measurement": "Kobs × 10^3", "setting": "[2]; 5% dextrose pH 3.0, 60° C.", "value": "102.6 1/days"}]}
